Consider nine compounds from patent US20230017045A1, “PYRIDINE AND PYRIMIDINE CARBOXYLATE HERBICIDES AND METHODS OF USE THEREOF” (Dow AgroSciences LLC, priority 2017, published 2023).

Like-named read-outs stand apart in the source and are kept apart here.

The assay deals with test plant species. The assay is described as follows: Post-emergent herbicidal activity test (greenhouse, foliar spray, visual growth reduction). The assay is classed as in vivo. To be noted: post-emergence, 336 h, 140 g ai/ha. A digest of the protocol: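 Plants grown in greenhouse (15 h photoperiod, 23-29° C day/22-28° C night) to first or second true leaf stage were sprayed overhead with compound in acetone/water/isopropanol/DMSO/crop oil/X-77 carrier at 187 L/ha. Injury was scored visually after 14 d on a 0-100% scale versus solvent-blank and untreated controls.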

Where [1] appears, read: ECHCG: barnyardgrass (Echinochloa crus-galli), 14 days after application, read-out: Visual Growth Reduction (%) 14 Days After Application, ECHCG.
Setting [2] is: IPOHE: ivy-leaf morning glory (Ipomoea hederacea), 14 days after application, read-out: Visual Growth Reduction (%) 14 Days After Application, IPOHE.
Where [3] appears, read: KCHSC: kochia (Bassia scoparia), 14 days after application, read-out: Visual Growth Reduction (%) 14 Days After Application, KCHSC.
[4] abbreviates: ORYSA: rice (Oryza sativa), 14 days after application, read-out: Visual Growth Reduction (%) 14 Days After Application, ORYSA.
Setting [5] is: SETFA: giant foxtail (Setaria faberi), 14 days after application, read-out: Visual Growth Reduction (%) 14 Days After Application, SETFA.
The mark [6] stands for this setting: SORVU: grain sorghum (Sorghum vulgare), 14 days after application, read-out: Visual Growth Reduction (%) 14 Days After Application, SORVU.
Setting [7] is: STEME: common chickweed (Stellaria media), 14 days after application, read-out: Visual Growth Reduction (%) 14 Days After Application, STEME.
Setting [8] is: TRZAS: wheat, spring (Triticum aestivum), 14 days after application, read-out: Visual Growth Reduction (%) 14 Days After Application, TRZAS.
Where [9] appears, read: blackgrass (Alopecurus myosuroides), 14 Days After Application, read-out: Visual Growth Reduction (%) ALOMY.
The mark [10] stands for this setting: crabgrass (Digitaria sanguinalis), 14 Days After Application, read-out: Visual Growth Reduction (%) DIGSA.
[11] abbreviates: lambsquarters (Chenopodium album), 14 Days After Application, read-out: Visual Growth Reduction (%) CHEAL.
Setting [12] is: redroot pigweed (Amaranthus retroflexus), 14 Days After Application, read-out: Visual Growth Reduction (%) AMARE.
Where [13] appears, read: wild oat (Avena fatua), 14 Days After Application, read-out: Visual Growth Reduction (%) AVEFA.
The mark [14] stands for this setting: yellow nutsedge (Cyperus esculentus), 14 Days After Application, read-out: Visual Growth Reduction (%) CYPES.
Where [15] appears, read: canada thistle (Cirsium arvense), 14 Days After Application, read-out: Visual Growth Reduction (%) CIRAR.

Turning to `COc1cc(-c2nc(C(=O)O)c(Cl)cc2F)c(Cl)cc1C(F)(F)F` [F337, 3-Chloro-6-(2-chloro-5-methoxy-4-(trifluoromethyl)phenyl)-5-fluoropicolinic acid], the pest or weed control at 140 g/ha under setting [1] was 60 to 74%; the pest or weed control at 140 g/ha under setting [2] is 95 to 100%; the pest or weed control at 140 g/ha under setting [3] was in the range of 85 to 94%; the pest or weed control at 140 g/ha under setting [4] was 0 to 29%; the pest or weed control at 140 g/ha under setting [5] was in the range of 85 to 94%; the pest or weed control at 140 g/ha under setting [6] lay within 75 to 84%. For the same compound, the pest or weed control at 140 g/ha reads like this: under setting [7], 0 to 29%; under setting [8], 30 to 44%; under setting [9], 0 to 29%; under setting [10], 45 to 59%; under setting [11], 75 to 84%; under setting [12], 30 to 44%. Also, the pest or weed control at 140 g/ha by setting is: under setting [13], 0 to 29%; under setting [14], 0 to 29%.

Regarding `C=Cc1c(C(F)(F)F)ccc(-c2nc(C(=O)OC)c(Cl)cc2F)c1Cl` [F338, Methyl 3-chloro-6-(2-chloro-4-(trifluoromethyl)-3-vinylphenyl)-5-fluoropicolinate], the pest or weed control at 140 g/ha was in the range of 0 to 29% under setting [1]; 95 to 100% under setting [2]; 45 to 59% under setting [3]; 0 to 29% under setting [4]; 75 to 84% under setting [5]; 85 to 94% under setting [6]. Besides, the pest or weed control at 140 g/ha runs as follows: under setting [7], 0 to 29%; under setting [8], 30 to 44%; under setting [9], 0 to 29%; under setting [10], 60 to 74%; under setting [11], 85 to 94%; under setting [12], 95 to 100%. Also, the pest or weed control at 140 g/ha by setting is: under setting [13], 30 to 44%; under setting [14], 0 to 29%.

For the compound `COC(=O)c1nc(-c2ccc(C(F)(F)F)c(C)c2Cl)c(F)cc1Cl` [F339, Methyl 3-chloro-6-(2-chloro-3-methyl-4-(trifluoromethyl)phenyl)-5-fluoropicolinate], the pest or weed control at 140 g/ha by setting is: under setting [1], 0 to 29%; under setting [2], 95 to 100%; under setting [3], 85 to 94%; under setting [4], 0 to 29%; under setting [5], 0 to 29%; under setting [6], 60 to 74%. Further, the pest or weed control at 140 g/ha by setting is: under setting [7], 0 to 29%; under setting [8], 0 to 29%; under setting [9], 0 to 29%; under setting [10], 0 to 29%; under setting [11], 95 to 100%; under setting [12], 95 to 100%. The pest or weed control at 140 g/ha under setting [13] lay in the range of 0 to 29% and the pest or weed control at 140 g/ha under setting [14] was 60 to 74%.

`COC(=O)c1nc(-c2ccc3ccccc3c2)c(F)cc1Cl` [F340, Methyl 3-chloro-5-fluoro-6-(naphthalen-2-yl)picolinate]: the pest or weed control at 140 g/ha under setting [1] fell in the range of 0 to 29%; the pest or weed control at 140 g/ha under setting [2] is 0 to 29%; the pest or weed control at 140 g/ha under setting [3] is 0 to 29%; the pest or weed control at 140 g/ha under setting [4] is 0 to 29%; the pest or weed control at 140 g/ha under setting [5] fell in the range of 0 to 29%; the pest or weed control at 140 g/ha under setting [6] fell in the range of 0 to 29%. Moreover, the pest or weed control at 140 g/ha under setting [7] lay within 0 to 29%; the pest or weed control at 140 g/ha under setting [8] lay in the range of 0 to 29%; the pest or weed control at 140 g/ha under setting [9] fell in the range of 0 to 29%; the pest or weed control at 140 g/ha under setting [10] is 0 to 29%; the pest or weed control at 140 g/ha under setting [11] fell in the range of 0 to 29%; the pest or weed control at 140 g/ha under setting [12] lay within 0 to 29%. The pest or weed control at 140 g/ha fell in the range of 0 to 29% under setting [13] and 0 to 29% under setting [14].

As for `COC(=O)c1nc(-c2ccc(C(F)(F)F)c(Br)c2Cl)c(F)cc1Cl` [F341, Methyl 6-(3-bromo-2-chloro-4-(trifluoromethyl)phenyl)-3-chloro-5-fluoropicolinate], the pest or weed control at 140 g/ha by setting is: under setting [1], 0 to 29%; under setting [2], 95 to 100%; under setting [3], 60 to 74%; under setting [4], 0 to 29%; under setting [5], 85 to 94%; under setting [6], 95 to 100%. In addition, the pest or weed control at 140 g/ha under setting [7] was 30 to 44%; the pest or weed control at 140 g/ha under setting [8] is 45 to 59%; the pest or weed control at 140 g/ha under setting [9] lay in the range of 30 to 44%; the pest or weed control at 140 g/ha under setting [10] was in the range of 85 to 94%; the pest or weed control at 140 g/ha under setting [11] was in the range of 85 to 94%; the pest or weed control at 140 g/ha under setting [12] lay in the range of 95 to 100%. Moreover, the pest or weed control at 140 g/ha by setting is: under setting [13], 45 to 59%; under setting [14], 0 to 29%.

As for `CSc1cc(-c2nc(C(=O)O)c(Cl)cc2F)c(Cl)cc1C(F)(F)F` [F342, 3-Chloro-6-(2-chloro-5-(methylthio)-4-(trifluoromethyl)phenyl)-5-fluoropicolinic acid], the pest or weed control at 140 g/ha under setting [1] was 0 to 29%; the pest or weed control at 140 g/ha under setting [2] was in the range of 85 to 94%; the pest or weed control at 140 g/ha under setting [3] fell in the range of 85 to 94%; the pest or weed control at 140 g/ha under setting [4] was in the range of 0 to 29%; the pest or weed control at 140 g/ha under setting [5] lay within 30 to 44%; the pest or weed control at 140 g/ha under setting [6] lay within 30 to 44%. In addition, the pest or weed control at 140 g/ha is 0 to 29% under setting [7]; 30 to 44% under setting [8]; 0 to 29% under setting [9]; 0 to 29% under setting [10]; 60 to 74% under setting [11]; 0 to 29% under setting [12]. In addition, the pest or weed control at 140 g/ha is, setting by setting: under setting [13], 0 to 29%; under setting [14], 0 to 29%.

On to `COC(=O)c1nc(-c2ccc(OS(C)(=O)=O)cc2F)c(F)cc1Cl` [F343], for which the pest or weed control at 140 g/ha is, setting by setting: under setting [1], 85 to 94%; under setting [2], 95 to 100%; under setting [3], 85 to 94%; under setting [4], 30 to 44%; under setting [5], 85 to 94%; under setting [6], 95 to 100%. The pest or weed control at 140 g/ha is 0 to 29% under setting [7]; 60 to 74% under setting [8]; 0 to 29% under setting [9]; 95 to 100% under setting [15]; 85 to 94% under setting [10]; 85 to 94% under setting [11]. Besides, the pest or weed control at 140 g/ha under setting [12] is 95 to 100%, the pest or weed control at 140 g/ha under setting [13] fell in the range of 30 to 44% and the pest or weed control at 140 g/ha under setting [14] lay in the range of 30 to 44%.

For `COc1cc2c(cc1-c1nc(C(=O)O)c(Cl)cc1F)OC(F)(F)O2` [F344, 3-Chloro-6-(2,2-difluoro-6-methoxybenzo[d][1,3]dioxol-5-yl)-5-fluoropicolinic acid], the pest or weed control at 140 g/ha is, setting by setting: under setting [1], 0 to 29%; under setting [2], 95 to 100%; under setting [3], 45 to 59%; under setting [4], 0 to 29%; under setting [5], 60 to 74%; under setting [6], 75 to 84%. Also, the pest or weed control at 140 g/ha fell in the range of 0 to 29% under setting [7]; 45 to 59% under setting [8]; 0 to 29% under setting [9]; 60 to 74% under setting [10]; 30 to 44% under setting [11]; 0 to 29% under setting [12]. The pest or weed control at 140 g/ha by setting is: under setting [13], 0 to 29%; under setting [14], 0 to 29%.

On to `COC(=O)c1nc(-c2ccc(O)cc2F)c(F)cc1Cl` [F345, Methyl 3-chloro-5-fluoro-6-(2-fluoro-4-hydroxyphenyl) picolinate], for which the pest or weed control at 140 g/ha is, setting by setting: under setting [1], 0 to 29%; under setting [2], 0 to 29%; under setting [3], 0 to 29%; under setting [4], 0 to 29%; under setting [5], 0 to 29%; under setting [6], 0 to 29%. Besides, the pest or weed control at 140 g/ha is, setting by setting: under setting [7], 0 to 29%; under setting [8], 0 to 29%; under setting [9], 0 to 29%; under setting [15], 0 to 29%; under setting [10], 0 to 29%; under setting [11], 0 to 29%. Also, the pest or weed control at 140 g/ha by setting is: under setting [12], 0 to 29%; under setting [13], 0 to 29%; under setting [14], 0 to 29%.
